Experimental data: patent publication US20230265151A1, “GIP/GLP1 CO-AGONIST COMPOUNDS” (priority 2020, published 2023)
Like-named read-outs stand apart in the source and are kept apart here. *1 amine or outer side, *2 acyl side, *3 side chain or, on linkers, in order; H or OH if unused. Where a SMILES comes first, the peptide text is derived from it. Side-chain parts run from the residue outwards. [ ]: non-standard residue; d: D form. The star is where a group is joined. αMePhe(2-F) = C[C@](N)(Cc1ccccc1F)C(=O)O; γGlu = O=C(O)[C@H](CCC(=O)[*:2])N[*:1]; C14 diacid = O=C(O)CCCCCCCCCCCCC(=O)*; αMeY = C[C@](N)(Cc1ccc(O)cc1)C(=O)O; αMeF = C[C@](N)(Cc1ccccc1)C(=O)O; 4Pal = N[C@@H](Cc1ccncc1)C(=O)O; αMeL = CC(C)C[C@](C)(N)C(=O)O; Lauroyl = CCCCCCCCCCCC(=O)*; Orn = NCCC[C@H](N)C(=O)O; AEEA = NCCOCCOCC(=O)O; Aib = CC(C)(N)C(=O)O

Legend:
Assay type in all cases: cell-based
hGLP-1R = hGLP-1R (Homo sapiens, UniProt P43220); test: Functional cAMP formation (HTRF) in HEK-293 clonal cells expressing hGLP-1R, 0.1% bovine casein, without or with 1.0% human serum albumin; design: expressed in transfected cells; settings: 37° C.; for Emax: percent of maximal response to GLP-1(7-36)NH2, read-out: hGLP-1R Emax, % ± SEM; for EC50: geometric mean, read-out: hGLP-1R EC50, nM (SEM, n)
Chain of hGLP-1R (P43220 24-463): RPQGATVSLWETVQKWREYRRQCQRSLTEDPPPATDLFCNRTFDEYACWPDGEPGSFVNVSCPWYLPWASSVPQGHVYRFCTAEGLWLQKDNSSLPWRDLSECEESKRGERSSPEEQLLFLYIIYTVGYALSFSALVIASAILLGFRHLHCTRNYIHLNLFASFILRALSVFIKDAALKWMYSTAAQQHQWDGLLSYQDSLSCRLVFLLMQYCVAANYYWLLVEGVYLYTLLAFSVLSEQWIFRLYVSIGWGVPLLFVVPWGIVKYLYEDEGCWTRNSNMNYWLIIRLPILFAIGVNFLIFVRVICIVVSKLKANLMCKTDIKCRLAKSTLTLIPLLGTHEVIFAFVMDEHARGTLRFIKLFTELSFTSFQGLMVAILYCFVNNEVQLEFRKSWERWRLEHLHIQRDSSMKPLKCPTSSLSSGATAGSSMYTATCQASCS
Summary of the method: (§1)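 Cells were stimulated with peptide for 30 min at 37° C, then intracellular cAMP was measured by competitive HTRF (665/620 nm ratio) and converted to nM using a cAMP standard curve. Relative EC50 and Emax came from four-parameter logistic fits of percent maximal response against peptide concentration.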

hGIPR = target: T1, hGIPR (Homo sapiens, UniProt P48546); test: Functional cAMP formation (HTRF) in HEK-293 clonal cells expressing hGIPR, 0.1% bovine casein, without or with 1.0% human serum albumin; settings: for Emax: read-out: hGIPR Emax, % ± SEM; for EC50: read-out: hGIPR EC50, nM (SEM, n)
T1 construct: expressed in transfected cells
T1 sequence (P48546 22-466): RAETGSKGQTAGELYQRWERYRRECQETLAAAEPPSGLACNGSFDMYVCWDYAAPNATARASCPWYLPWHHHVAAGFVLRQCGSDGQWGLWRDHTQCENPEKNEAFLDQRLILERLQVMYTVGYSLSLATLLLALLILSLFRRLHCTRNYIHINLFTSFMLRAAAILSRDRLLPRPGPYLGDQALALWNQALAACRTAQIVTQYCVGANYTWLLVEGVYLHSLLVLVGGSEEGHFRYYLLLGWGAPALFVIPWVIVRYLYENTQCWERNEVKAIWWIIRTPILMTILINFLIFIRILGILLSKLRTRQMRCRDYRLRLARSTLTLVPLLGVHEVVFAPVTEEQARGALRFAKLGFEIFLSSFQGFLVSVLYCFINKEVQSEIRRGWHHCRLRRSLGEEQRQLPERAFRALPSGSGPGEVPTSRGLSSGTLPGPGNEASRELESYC
Summary of the method: as §1

hGCGR = target: T2, hGCGR (Homo sapiens, UniProt P47871); test: Functional cAMP formation (HTRF) in HEK-293 clonal cells expressing hGCGR, 0.1% bovine casein, without or with 1.0% human serum albumin; settings: read-out: hGCGR EC50, nM (SEM, n)
T2 construct: expressed in transfected cells
T2 sequence (P47871 26-477): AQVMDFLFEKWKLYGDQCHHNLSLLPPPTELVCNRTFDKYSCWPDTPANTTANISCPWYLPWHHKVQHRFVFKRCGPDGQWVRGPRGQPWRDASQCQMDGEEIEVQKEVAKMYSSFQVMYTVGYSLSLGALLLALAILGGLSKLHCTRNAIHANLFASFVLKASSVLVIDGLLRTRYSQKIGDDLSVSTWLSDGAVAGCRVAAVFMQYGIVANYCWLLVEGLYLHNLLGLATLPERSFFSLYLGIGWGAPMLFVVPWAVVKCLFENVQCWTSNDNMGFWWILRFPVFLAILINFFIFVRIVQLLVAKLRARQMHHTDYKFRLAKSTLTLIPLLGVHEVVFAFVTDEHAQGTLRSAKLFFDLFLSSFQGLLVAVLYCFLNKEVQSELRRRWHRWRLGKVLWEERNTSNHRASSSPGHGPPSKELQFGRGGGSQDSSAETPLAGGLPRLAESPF
Summary of the method: as §1

[1] = HEK293, cAMP, 0.1% bovine casein, arithmetic mean
[2] = cAMP, 0.1% bovine casein (no human serum albumin)
[3] = HEK293, cAMP, 37° C., 0.1% bovine casein and 1.0% human serum albumin, percent of maximal response to GIP(1-42)NH2
[4] = cAMP, 37° C., 0.1% bovine casein (no human serum albumin), geometric mean
[5] = cAMP, 37° C., 0.1% bovine casein and 1.0% human serum albumin, geometric mean (SEM, n)
[6] = 0.1% bovine casein and 1.0% human serum albumin, 37° C., geometric mean
[7] = HEK293, 0.1% bovine casein and 1.0% human serum albumin, 37° C., percent of maximal response to GIP(1-42)NH2
[8] = cAMP, incubated at 37° C., 0.1% bovine casein (no human serum albumin), geometric mean

For `CCCCCCCCCCCC(=O)N[C@@H](CCC(=O)NCCOCCOCC(=O)NCCOCCOCC(=O)NCCCC[C@H](NC(=O)[C@H](CCCN)NC(=O)[C@H](CC(=O)O)NC(=O)[C@H](CC(C)C)NC(=O)[C@](C)(CC(C)C)NC(=O)[C@@H](NC(=O)C(C)(C)NC(=O)[C@H](Cc1ccncc1)NC(=O)[C@H](CC(=O)O)NC(=O)[C@H](CO)NC(=O)[C@@H](NC(=O)[C@](C)(Cc1ccccc1F)NC(=O)[C@@H](NC(=O)CNC(=O)[C@H](CCC(=O)O)NC(=O)C(C)(C)NC(=O)[C@@H](N)Cc1ccc(O)cc1)[C@@H](C)O)[C@@H](C)O)[C@@H](C)CC)C(=O)N[C@@H](C)C(=O)N[C@@H](CCC(N)=O)C(=O)NC(C)(C)C(=O)N[C@@H](CCCCNC(=O)COCCOCCNC(=O)COCCOCCNC(=O)CC[C@H](NC(=O)CCCCCCCCCCC)C(=O)O)C(=O)N[C@@](C)(Cc1ccccc1)C(=O)N[C@H](C(=O)N[C@H](CCC(=O)O)C(=O)N[C@@](C)(Cc1ccc(O)cc1)C(=O)N[C@@H](CC(C)C)C(=O)N[C@H](C(=O)N[C@@H](CCC(=O)O)C(=O)NCC(=O)NCC(=O)N1CCC[C@H]1C(=O)N[C@@H](CO)C(=O)N[C@@H](CO)C(=O)NCC(=O)N[C@@H](C)C(=O)N1CCC[C@H]1C(=O)N1CCC[C@H]1C(=O)N1CCC[C@H]1C(=O)N[C@@H](CO)C(N)=O)[C@@H](C)CC)[C@@H](C)CC)C(=O)O` [Example 430] (H-Y[Aib]EGT[αMePhe(2-F)]TSD[4Pal][Aib]I[αMeL]LD[Orn]K([AEEA-AEEA-γGlu-Lauroyl])AQ[Aib]K([AEEA-AEEA-γGlu-Lauroyl])[αMeF]I[dE][αMeY]LIEGGPSSGAPPPS-NH2), the Emax (hGLP-1R; HEK293, cAMP, 0.1% bovine casein and 1.0% human serum albumin) was 88.5%, the Emax (hGLP-1R; [1]) was 93.1% and the EC50 (hGLP-1R; [2]) was 0.342 nM. The Emax (hGIPR; [3]) was 91.5%, the EC50 (hGIPR; [4]) was 0.0175 nM and the EC50 (hGIPR; [5]) was 1.09 nM. The EC50 (hGCGR; [4]) was over 9950 nM and the EC50 (hGCGR; [5]) was over 9950 nM.

`CC[C@H](C)[C@H](NC(=O)[C@H](CC(C)C)NC(=O)[C@](C)(Cc1ccc(O)cc1)NC(=O)[C@@H](CCC(=O)O)NC(=O)[C@@H](NC(=O)[C@H](Cc1ccccc1)NC(=O)[C@H](CCCCNC(=O)CCOCCOCCOCCNC(=O)CC[C@H](NC(=O)CCCCCCCCCCCCC(=O)O)C(=O)O)NC(=O)C(C)(C)NC(=O)[C@H](CCC(N)=O)NC(=O)[C@H](C)NC(=O)[C@H](CCCCNC(=O)CCOCCOCCOCCNC(=O)CC[C@H](NC(=O)CCCCCCCCCCCCC(=O)O)C(=O)O)NC(=O)[C@H](CCCN)NC(=O)[C@H](CC(=O)O)NC(=O)[C@H](CC(C)C)NC(=O)[C@](C)(CC(C)C)NC(=O)[C@@H](NC(=O)C(C)(C)NC(=O)[C@H](Cc1ccncc1)NC(=O)[C@H](CC(=O)O)NC(=O)[C@H](CO)NC(=O)[C@@H](NC(=O)[C@](C)(Cc1ccccc1F)NC(=O)[C@@H](NC(=O)CNC(=O)[C@H](CCC(=O)O)NC(=O)C(C)(C)NC(=O)[C@@H](N)Cc1ccc(O)cc1)[C@@H](C)O)[C@@H](C)O)[C@@H](C)CC)[C@@H](C)CC)C(=O)N[C@@H](CCC(=O)O)C(=O)NCC(=O)NCC(=O)N1CCC[C@H]1C(=O)N[C@@H](CO)C(=O)N[C@@H](CO)C(=O)NCC(=O)N[C@@H](C)C(=O)N1CCC[C@H]1C(=O)N1CCC[C@H]1C(=O)N1CCC[C@H]1C(=O)N[C@@H](CO)C(N)=O` [Example 404] gave an Emax (hGLP-1R; [1]) of 94.3%, an EC50 (hGLP-1R; [2]) of 0.632 nM and an Emax (hGIPR; [3]) of 77.3%. For the same compound, the EC50 (hGIPR; [4]) was 0.014 nM, the EC50 (hGCGR; [4]) was over 9950 nM and the EC50 (hGCGR; [5]) was over 9950 nM.

`CC[C@H](C)[C@H](NC(=O)[C@H](CC(C)C)NC(=O)[C@](C)(Cc1ccc(O)cc1)NC(=O)[C@@H](CCC(=O)O)NC(=O)[C@@H](NC(=O)[C@H](Cc1ccccc1)NC(=O)[C@H](CCC(=O)O)NC(=O)C(C)(C)NC(=O)[C@H](CCC(N)=O)NC(=O)[C@H](C)NC(=O)[C@H](CCCCNC(=O)COCCOCCNC(=O)COCCOCCNC(=O)CCCCCCCCCCCCC(=O)O)NC(=O)[C@H](CCCN)NC(=O)[C@H](CC(=O)O)NC(=O)[C@H](CC(C)C)NC(=O)[C@](C)(CC(C)C)NC(=O)[C@@H](NC(=O)[C@H](CO)NC(=O)[C@H](Cc1ccncc1)NC(=O)[C@H](CC(=O)O)NC(=O)[C@H](CO)NC(=O)[C@@H](NC(=O)[C@](C)(Cc1ccccc1F)NC(=O)[C@@H](NC(=O)CNC(=O)[C@H](CCC(=O)O)NC(=O)C(C)(C)NC(=O)[C@@H](N)Cc1ccc(O)cc1)[C@@H](C)O)[C@@H](C)O)[C@@H](C)CC)[C@@H](C)CC)C(=O)N[C@@H](CCC(=O)O)C(=O)NCC(=O)NCC(=O)N[C@@H](CCCCNC(=O)COCCOCCNC(=O)COCCOCCNC(=O)CCCCCCCCCCCCC(=O)O)C(=O)N[C@@H](CO)C(=O)N[C@@H](CO)C(=O)NCC(=O)N[C@@H](C)C(=O)N1CCC[C@H]1C(=O)N1CCC[C@H]1C(=O)N1CCC[C@H]1C(=O)N[C@@H](CO)C(N)=O` [Example 9] showed an EC50 (hGLP-1R; 0.1% bovine casein and 1.0% human serum albumin) of 8.82 nM, an EC50 (hGIPR; [6]) of 0.211 nM and an Emax (hGIPR; [7]) of 91.6 ± 4.63%. The Emax (hGIPR; HEK293, percent of maximal response to GIP(1-42)NH2, 37° C., 0.1% bovine casein, arithmetic mean) was 93.6 ± 2.36%, the EC50 (hGIPR; [8]) was 0.0102 nM and the EC50 (hGCGR; [6]) was over 9950 nM. The EC50 (hGCGR; [8]) was over 9950 nM.

In the case of `CC[C@H](C)[C@H](NC(=O)[C@H](CCCN)NC(=O)[C@H](CC(=O)O)NC(=O)[C@H](CC(C)C)NC(=O)[C@](C)(CC(C)C)NC(=O)[C@@H](NC(=O)[C@H](CO)NC(=O)[C@H](Cc1ccc(OC)cc1)NC(=O)[C@H](CC(=O)O)NC(=O)[C@H](CO)NC(=O)[C@@H](NC(=O)[C@](C)(Cc1ccccc1F)NC(=O)[C@@H](NC(=O)CNC(=O)[C@H](CCC(=O)O)NC(=O)C(C)(C)NC(=O)[C@@H](N)Cc1ccc(O)cc1)[C@@H](C)O)[C@@H](C)O)[C@@H](C)CC)C(=O)N[C@@H](C)C(=O)N[C@@H](CCC(N)=O)C(=O)NC(C)(C)C(=O)N[C@@H](CCC(=O)O)C(=O)N[C@@H](Cc1ccccc1)C(=O)N[C@H](C(=O)N[C@@H](CCCCNC(=O)COCCOCCNC(=O)COCCOCCNC(=O)CC[C@H](NC(=O)CCCCCCCCCCCCC(=O)O)C(=O)O)C(=O)N[C@@](C)(Cc1ccc(O)cc1)C(=O)N[C@@H](CC(C)C)C(=O)N[C@H](C(=O)N[C@@H](CCCCNC(=O)COCCOCCNC(=O)COCCOCCNC(=O)CC[C@H](NC(=O)CCCCCCCCCCCCC(=O)O)C(=O)O)C(=O)NCC(=O)NCC(=O)N1CCC[C@H]1C(=O)N[C@@H](CO)C(=O)N[C@@H](CO)C(=O)NCC(=O)N[C@@H](C)C(=O)N1CCC[C@H]1C(=O)N1CCC[C@H]1C(=O)N1CCC[C@H]1C(=O)N[C@@H](CO)C(N)=O)[C@@H](C)CC)[C@@H](C)CC` [Example 262] (H-Y[Aib]EGT[αMePhe(2-F)]TSDY(Me)SI[αMeL]LD[Orn]IAQ[Aib]EFIK([AEEA-AEEA-γGlu-C14 diacid])[αMeY]LIK([AEEA-AEEA-γGlu-C14 diacid])GGPSSGAPPPS-NH2; N-terminus assumed), the Emax (hGLP-1R; HEK293, 0.1% bovine casein and 1.0% human serum albumin) is reported as 115%, the Emax (hGLP-1R; [1]) is reported as 105% and the Emax (hGIPR; [7]) is reported as 79.7%. For the same compound, the Emax (hGIPR; HEK293, cAMP, 37° C., 0.1% bovine casein, percent of maximal response to GIP(1-42)NH2, arithmetic mean) was 89.8%, the EC50 (hGCGR; [6]) was over 9950 nM and the EC50 (hGCGR; [4]) was over 9950 nM.
